Laboratory results as given in patent publication US11319289B2, “5-hydroxy pyridine-based compound for use as P2X1 and P2X3 receptor antagonist and pharmaceutical composition comprising same” (GWANGJU INSTITUTE OF SCIENCE AND TECHNOLOGY, priority 2017, dated 2022).

Assays:
[1] = system: SNL rats (mechanical allodynia); experiment: Antiallodynic effect (von Frey) in spinal nerve ligation (SNL) rats; assay type: in vivo, rat; settings: for ED50: Rattus norvegicus, antiallodynic effect, intravenous administration
Description: (§1) 3-1. Evaluation of In Vivo Efficacy
(§2) The antiallodynic effects (mechanical allodynia) were evaluated using rats according to a previously reported protocol. In order to evaluate the withdrawal threshold, rats (naive, SNL and CIPN) were placed on a plastic mesh floor of individual plastic cages. The rats were allowed to acclimate to the environment for 30 minutes and examined after intrathecal or intravenous administration to the caudal vein. The control group received the same volume of vehicle (intrathecal administration of saline or DMSO, intravenous administration of DMSO:PEG:PBS=1:6:3 v/v %) as the experimental groups. Evaluation of the mechanical withdrawal threshold was measured in responses to the application of calibrated von Frey filaments (Stoelting, Wood Dale, Ill., USA) to the hind paw of the rats through the holes on the mesh floor underneath the cage using the ‘up and down method’. A series of eight von Frey filaments (0.4, 0.7, 1.2, 2.0, 3.6, 5.5, 8.5, and 15 g) was applied perpendicular to the sole of the hind paw for 5 seconds while the head was bent. Active withdrawal or flinching of the paw was considered as a positive reaction. The absence of response in the rats, when a pressure was applied to 15 g von Frey filament, was used as a cut-off value. Only rats with definite allodynia (i.e., mechanical withdrawal threshold: less than 4 g after SNL or less than 5 g after CIPN) were tested. The rats after termination of the experiments were euthanized through an overdose of sevoflurane. The withdrawal threshold data for the von Frey filament test was calculated as % MPE (maximum possible effect) based on the following Calculation Equation: % MPE=[(Post-drug threshold−Post-injured baseline threshold)/(Cutoff threshold−post-injured baseline threshold)×100]. Dose-response data were analyzed using Scheffe's post hoc test and one-way analysis of variance (ANOVA).

[2] = system: CIPN rats (mechanical allodynia); experiment: Antiallodynic effect (von Frey) in chemotherapy-induced peripheral neuropathy (CIPN) rats; assay type: in vivo; settings: Rattus norvegicus, intravenous administration
Description: as §1, §2

[3] = system: neuropathic pain (NeP) animal models; experiment: Efficacy in neuropathic pain (NeP) animal models, model not specified; assay type: in vivo, rat; settings: Rattus norvegicus, read-out: ED50 of clinical drugs for NeP
Description: as §1, §2

CCCc1nc(Cc2cccc(Oc3ccccc3)c2)c(C)c(C(=O)OCCc2ccccc2)c1O [Compound 46a, Phenethyl 3-hydroxy-5-methyl-6-(3-phenoxybenzyl)-2-propylisonicotinate]
ED50 [1]: 2.31 mg/kg
ED50 [2]: 3.02 mg/kg

CCCCCCCCOC(=O)c1c(C)c(Cc2cccc(Oc3ccccc3)c2)nc(CCC)c1O [Compound 46b, Octyl 3-hydroxy-5-methyl-6-(3-phenoxybenzyl)-2-propylisonicotinate]
ED50 [1]: 2.47 mg/kg
ED50 [2]: 2.93 mg/kg

CCCc1nc(Cc2cccc(Oc3ccccc3)c2)c(C)c(C(=O)OCCN2C(=O)c3ccccc3C2=O)c1O [Compound 46c, 2-phthalimidoethyl 3-hydroxy-5-methyl-6-(3-phenoxybenzyl)-2-propylisonicotinate]
ED50 [1]: 2.97 mg/kg
ED50 [2]: 3.28 mg/kg

CCCc1nc(Cc2cccc(Oc3ccccc3)c2)c(C)c(C(=O)OCCCCN2C(=O)c3ccccc3C2=O)c1O [Compound 46d, 4-phthalimidobutyl 3-hydroxy-5-methyl-6-(3-phenoxybenzyl)-2-propylisonicotinate]
ED50 [1]: 3.12 mg/kg
ED50 [2]: 3.94 mg/kg

CCCc1nc(Cc2cccc(Oc3ccccc3)c2)c(C)c(C(=O)OCCN2CCCC2)c1O [Compound 46e, 2-(pyrrolidin-1-yl)ethyl 3-hydroxy-5-methyl-6-(3-phenoxybenzyl)-2-propylisonicotinate]
ED50 [1]: 3.02 mg/kg
ED50 [2]: 3.55 mg/kg

CCCc1nc(Cc2cccc(Oc3ccccc3)c2)c(C)c(C(=O)OC(C)C)c1O [Compound 46f, Isopropyl 3-hydroxy-5-methyl-6-(3-phenoxybenzyl)-2-propylisonicotinate]
ED50 [1]: 2.78 mg/kg
ED50 [2]: 3.08 mg/kg

CCCc1nc(Cc2cccc(Oc3ccccc3)c2)c(C)c(C(=O)OC(CC)CC)c1O [Compound 46g, Pentan-3-yl 3-hydroxy-5-methyl-6-(3-phenoxybenzyl)-2-propylisonicotinate]
ED50 [1]: 3.42 mg/kg
ED50 [2]: 3.66 mg/kg

CCCc1nc(Cc2cccc(Oc3ccccc3)c2)c(C)c(C(=O)OC2CCCC2)c1O [Compound 46h, Cyclopentyl 3-hydroxy-5-methyl-6-(3-phenoxybenzyl)-2-propylisonicotinate]
ED50 [1]: 3.64 mg/kg
ED50 [2]: 3.91 mg/kg

CCCc1nc(Cc2cccc(Oc3ccccc3)c2)c(C)c(C(=O)OC2CCOC2)c1O (stereo not shown) [Compound 46i, Tetrahydrofuran-3-yl 3-hydroxy-5-methyl-6-(3-phenoxybenzyl)-2-propylisonicotinate]
ED50 [1]: 2.87 mg/kg
ED50 [2]: 3.56 mg/kg

CCCc1nc(Cc2cccc(Oc3ccccc3)c2)c(C)c(C(=O)OC2CCNCC2)c1O [Compound 47, Piperidin-4-yl 3-hydroxy-5-methyl-6-(3-phenoxybenzyl)-2-propylisonicotinate]
ED50 [1]: 3.35 mg/kg
ED50 [2]: 3.77 mg/kg

CCCc1nc(Cc2cccc(Oc3ccccc3)c2)c(C)c(C(=O)OCC)c1O [Compound 48, Ethyl 3-hydroxy-5-methyl-6-(3-phenoxybenzyl)-2-propylisonicotinate]
ED50 [1]: 3.52 mg/kg
ED50 [2]: 3.87 mg/kg

CC(C)C[C@H](CN)CC(=O)O [pregabalin, reference compound]
antiallodynic efficacy, MPE % ([1]; 1 μg, intrathecal administration): 65±9%
ED50 [3]: 4.21 mg/kg

COc1cccc(C2(O)CCCCC2CN(C)C)c1 (stereo not shown) [tramadol, reference compound]
ED50 [3]: 4.67 mg/kg
